Measurements reported in article PMC8632988, “Inhibition of SYK and cSrc kinases can protect bone and cartilage in preclinical models of osteoarthritis and rheumatoid arthritis” (Scientific Reports, 2021).
Several values for one entry are separate records, joined by “and”; a condition that tells them apart may be missing. Equal values may be shown once. Read-outs that look alike come from different tables or passages of the source.

Experiment: Tissue distribution after single oral administration in rats
Assay type: in vivo, rat
Conditions: 100 mg/kg PO, male Wistar rats; for concentration at 2 h / concentration at 8 h / concentration at 24 h: male, Wistar, po; for concentration at 2 h / concentration at 8 h / concentration at 24 h / Cmax / Tmax / AUC / Kp / AUC(0-inf) / half-life: rat; for concentration at 2 h / concentration at 8 h / concentration at 24 h / Muscle concentration / Prostate concentration / Spleen concentration: 100 mg/kg; for Cmax / Tmax / AUC / Kp / AUC(0-inf) / half-life: Estimated Value; for AUC: read-out: AUC24; for Kp: read-out: AUC24/AUC24 (plasma); for half-life: read-out: Terminal t1/2 (converted)
Description: Experiments were performed at ChemPartner, Shanghai, China and approved by Institutional Ethics Committee (IEC) of ChemPartner. Male Wistar 10–12 weeks old rats with body weights of 185–220 g and male New Zealand rabbits with body weights of 2.0–2.3 kg were purchased from Shanghai SLAC Laboratory Animal Co., Ltd. MT-SYK-03 was administered to the three groups of rats (six rats per group) via oral gavage at 10 mL/kg concentration, and in rabbits 5 mL/kg concentration. Blood samples were kept on ice and centrifuged (2000 g, 4 ℃, 5 min) within 15 min post sampling.

## COc1cc(Nc2ncnc(Nc3cc4c(cn3)NC(=O)C(C)(C)O4)n2)cc(OC)c1OC [MT-SYK-03]
prostate, prostate, 2 h, mean, read-out: Prostate concentration, Mean
  concentration at 2 h: 1260 ng/mL
prostate, prostate, 8 h, mean, read-out: Prostate concentration, Mean
  concentration at 8 h: 251 ng/mL
prostate, prostate, 24 h, individual animals, read-out: Prostate concentration
  concentration at 24 h: 21.6 ng/mL
prostate, prostate, 24 h, mean, read-out: Prostate concentration, Mean
  concentration at 24 h: 21.6 ng/mL
spleen, spleen, 2 h, individual animals, read-out: Spleen concentration
  concentration at 2 h: 2060 ng/mL
spleen, spleen, 2 h, mean, read-out: Spleen concentration, Mean
  concentration at 2 h: 1910 ng/mL
spleen, spleen, 8 h, mean, read-out: Spleen concentration, Mean
  concentration at 8 h: 374 ng/mL
spleen, spleen, 24 h, individual animals, read-out: Spleen concentration
  concentration at 24 h: 30.3 ng/mL
spleen, spleen, 24 h, mean, read-out: Spleen concentration, Mean
  concentration at 24 h: 30.3 ng/mL
muscle, 2 h, individual animals
  Muscle concentration: 435 ng/mL and 416 ng/mL
muscle, 8 h, individual animals
  Muscle concentration: 107 ng/mL and 93.2 ng/mL
muscle, 24 h, individual animals
  Muscle concentration: 8.92 ng/mL and BQL
prostate, 2 h, individual animals
  Prostate concentration: 1200 ng/mL and 1500 ng/mL
prostate, 8 h, individual animals
  Prostate concentration: 500 ng/mL and 154 ng/mL and 98.0 ng/mL
prostate, 24 h, individual animals
  Prostate concentration: BQL
bone
  Cmax: 708 ng/mL
  Tmax: 8 h
  AUC: 9680 ng·h/mL
  Kp: 2.5
joint
  Cmax: 663 ng/mL
  Tmax: 8 h
  AUC: 9650 ng·h/mL
  Kp: 2.49
kidney
  AUC(0-inf): 18300 ng·h/mL
  Cmax: 2800 ng/mL
  Tmax: 2 h
  AUC: 18100 ng·h/mL
  Kp: 4.68
  half-life: 203 min
liver
  AUC(0-inf): 32400 ng·h/mL
  Cmax: 5250 ng/mL
  Tmax: 2 h
  AUC: 32100 ng·h/mL
  Kp: 8.3
  half-life: 197 min
muscle
  AUC(0-inf): 3150 ng·h/mL
  Cmax: 436 ng/mL
  Tmax: 2 h
  AUC: 3120 ng·h/mL
  Kp: 0.805
  half-life: 222 min
prostate
  AUC(0-inf): 8080 ng·h/mL
  Cmax: 1260 ng/mL
  Tmax: 2 h
  AUC: 7960 ng·h/mL
  Kp: 2.05
  half-life: 233 min
spleen
  AUC(0-inf): 12200 ng·h/mL
  Cmax: 1910 ng/mL
  Tmax: 2 h
  AUC: 12000 ng·h/mL
  Kp: 3.1
  half-life: 229 min
spleen, 2 h, individual animals
  Spleen concentration: 1420 ng/mL and 2260 ng/mL
spleen, 8 h, individual animals
  Spleen concentration: 726 ng/mL and 129 ng/mL and 268 ng/mL
spleen, 24 h, individual animals
  Spleen concentration: BQL
